US9688709B2, “Phosphaplatins and their use for treatment of cancers” (OHIO UNIVERSITY, priority 2010, dated 2017)
Like-named read-outs stand apart in the source and are kept apart here.

Key:
[1] = Stability in aqueous solution at neutral pH (31P-NMR); type: physicochemical
Text: Typically, no decomposition is observed within seven days after dissolving the phosphaplatin compounds in water and observing by ^31P-NMR spectroscopy.

[2] = system: human ovarian cancer A2780 xenograft; experiment: In vivo efficacy, A2780 mouse xenograft; set-up: species or system mice
Description: Stable clonal ovarian cancer cell lines A2780 were grown in cell culture until 80-90% confluency was reached. Trypsin (GIBCO/BRL, Grand Island, N.Y.) was used to detach adherent cells. Trypsinized cells were thoroughly washed with PBS (Phosphate Buffered Saline) to remove trypsin. Efficacy of phosphaplatin compounds were evaluated using human ovarian cancer, A2780 by subcutaneous xenograft in SCID Hairless OutBred, SHO-Prkdc^scidHr^hr, (Charles River Labs, Wilmington, Mass.) mice. Female SCID mice 4 to 5 weeks old were acclimated for one week before initiation of efficacy trials.
Cancer cells were re-suspended in PBS, and all mice except for negative control mice were injected subcutaneously with from 1×10^6 cells/0.10 mL to 5×10^6 cells/0.10 mL in PBS and were evaluated for tumors as a function of time using sterile 26 gauge needles and syringes. The mice were examined daily for tumor growth. Tumors were measured using digital calipers. The tumor volume was calculated by the formula (W^2×L)/2, where W is the tumor measurement at the widest point, and L is the tumor dimension at the longest point, where the volume of the tumor in mm^3 is equivalent to the weight in mg. […]
The xenograft SCID mice were monitored every day for any adverse events in their health by measuring weight loss/gain and food consumption. […]

[3] = system: human ovarian cancer OVCAR-10 xenograft; experiment: In vivo efficacy, OVCAR-10 mouse xenograft; set-up: species or system mice; settings: 40 mg/kg body weight, during the treatment time
Description: Stable human clonal ovarian cancer cell lines OVCAR-10 and head and neck cancer UMSCC10b were grown separately in cell culture until 80-90% confluency was reached. Trypsin (GIBCO/BRL, Grand Island, N.Y.) was used to detach adherent cells. Trypsinized cells were thoroughly washed with PBS (Phosphate Buffered Saline) to remove trypsin. Efficacy of phosphaplatin compounds were evaluated by subcutaneously implanting human OVCAR-10 and UMSCC-10b xenograft in SCID Hairless OutBred, SHO-Prkdc^scidHr^hr, (Charles River Labs, Wilmington, Mass.) mice, NIH (NIH III: NIHBNX-F; NIHS-Lystbg Foxnlnu Btkxid, 4-week old female, Taconic (Rensselaer, N.Y.) mice.
Female SCID/NIH mice 4-5 weeks old were acclimated for one week before initiation of efficacy trials. Cancer cells were re-suspended in PBS and all mice except for negative control mice were injected subcutaneously with from 1×10^6 cells/0.10 mL to 5×10^6 cells/0.10 mL in PBS. The tumor size was evaluated as a function of time. The mice were examined daily for tumor growth. Tumors were measured using digital calipers. The tumor volume was calculated by the formula (W^2×L)/2, where W is the tumor measurement at the widest point, and L is the tumor dimension at the longest point, where the volume of the tumor in mm^3 is equivalent to the weight in mg.
After approximately 2 weeks of the subcutaneous injection of cancer cells, the tumors that had reached a distinguishable tumor sizes (approximately 100 mm^3 to 200 mm^3), phosphaplatin compounds of desired doses were administered intra-peritoneally. These administrations were done one time on day 1, once on day 3, and once on day 5.
Each group of xenograft mice was treated with phosphaplatin compounds, and a matched set was treated with vehicle/placebo (PBS solution) and mock injection (as a control for stress response). […] The xenograft SCID mice/NIH were monitored every day for any adverse events in their health by measuring weight loss/gain and food consumption. Measurements were stopped and the study was ended when the tumor size exceeded 3000 mm^3. […]

SMILES | stability at neutral pH in aqueous solution ([1]; dissolved in water, observed by 31P-NMR, seven days) | tumor response ([2]; 40 mg/kg qodx3, first ten days of treatment) | tumor response [3] | stability at neutral pH in aqueous solution [1] | tumor response ([2]; 10 mg/kg qodx3, first ten days of treatment)
O=P1(O)OP(=O)(O)[O][Pt]2([NH][C@@H]3CCCC[C@H]3[NH]2)[O]1 (stereo partly drawn) [(1R,2R)-pyrodach-2, ((1R,2R)-1,2-cyclohexanediamine)(dihydrogenpyrophosphato)platinum (II)] | remarkable stability | tumor regression | tumor regression |  | 
O=P1(O)OP(=O)(O)[O][Pt]2([OH])([OH])([NH][C@@H]3CCCC[C@H]3[NH]2)[O]1 [(1R,2R)-pyrodach-4, ((1R,2R)-1,2-cyclohexanediamine)-trans-dihydroxo(dihydrogenpyrophosphato)platinum (IV)] |  |  | tumor regression | remarkable stability | tumor regression
